Results on ten molecules are retold here after patent US11369599B2, “Melt-extruded solid dispersions containing an apoptosis-inducing agent” (AbbVie Inc., priority 2014, dated 2022).

Series [1] in a line: First-in-human Phase 1 study (safety, PK) in relapsed or refractory CLL. Format: in vivo. The following applies: for AUC(0-inf): read-out: AUC (AUCINF). As to the method: Three subjects were enrolled in the first cohort of CLL arm.
Subject 1: bulky disease, initial dose=200 mg
Subject 2: non-bulky disease, initial dose=200 mg
Subject 3: bulky disease, initial dose=100 mg
The dosing scheme for CLL arm was as follows: single dose on Week 1 Day −3; QD dose started on Week 1 Day 1. PK sampling was done on Week 1 Day −3 and Week 3 Day 1.

Series [2] in a line: log D at pH 7.4 by an HPLC method. It is filed as physicochemical.
The next series deals with Bcl-2 protein (Homo sapiens (Human), UniProt P10415). As to the kind of experiment: TR-FRET (Time-Resolved Fluorescence-Resonance-Energy-Transfer) Bcl-2 binding assay. An excerpt: The smaller the Ki value, the greater is the binding affinity.
(In general: Time-resolved FRET reads energy transfer from a long-lived donor to a nearby acceptor.)

The mark [3] stands for this setting: human CLL, Week 1 Day-3 single dose, Mean of 3 subjects.
Setting [4] is: human CLL, Week 1 Day-3 single dose, Subject 1, 200 mg.
The mark [5] stands for this setting: human CLL, Week 1 Day-3 single dose, Subject 2, 200 mg.
Setting [6] is: human CLL, Week 1 Day-3 single dose, Subject 3, 100 mg.
Setting [7] is: human CLL, Week 3 Day 1, QD dosing, ID 101, 150 mg.
[8] abbreviates: human, plasma, oral, 100 mg, human CLL, Week 1 Day-3 single dose, Subject 3, 100 mg.
The mark [9] stands for this setting: human, plasma, oral, 200 mg, human CLL, Week 1 Day-3 single dose, Subject 1, 200 mg.
[10] abbreviates: human, plasma, oral, 200 mg, human CLL, Week 1 Day-3 single dose, Subject 2, 200 mg.

The structures appear in SMILES notation. pKi: −log10 of the molar value. Where two headings read alike, the source gives them in different places.

A word on the CL/F: it is the apparent clearance, not corrected for the fraction that reaches the circulation. A word on the Tmax: it is the time at which the peak concentration occurs. As usually defined, the Cmax is the highest concentration seen after dosing. In general, AUC refers to concentration integrated over time. What is called log D is lipophilicity at a set pH, counting ionised and neutral species. A lower log D goes with lower lipophilicity. Broadly, the pKi is the negative decadic logarithm of the Ki, by convention in mol/L.

Bcl-2 protein, sequence (P10415 whole entry): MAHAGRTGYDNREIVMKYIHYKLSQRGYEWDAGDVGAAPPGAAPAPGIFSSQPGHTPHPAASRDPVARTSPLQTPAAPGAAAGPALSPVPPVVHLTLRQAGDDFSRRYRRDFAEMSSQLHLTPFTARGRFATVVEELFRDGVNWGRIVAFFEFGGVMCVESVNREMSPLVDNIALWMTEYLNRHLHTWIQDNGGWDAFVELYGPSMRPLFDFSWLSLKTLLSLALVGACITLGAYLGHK

`CC1(C)CCC(CN2CCN(c3ccc(C(=O)NS(=O)(=O)c4ccc(NCC5CCOCC5)c([N+](=O)[O-])c4)c(Oc4cnc5[nH]ccc5c4)c3)CC2)=C(c2ccc(Cl)cc2)C1` [Compound 5, 4-(4-{[2-(4-chlorophenyl)-4,4-dimethylcyclohex-1-en-1-yl]methyl}piperazin-1-yl)-N-({3-nitro-4-[(tetrahydro-2H-pyran-4-ylmethyl)amino]phenyl}sulfonyl)-2-(1H-pyrrolo[2,3-b]pyridin-5-yloxy)benzamide]: the apparent clearance CL/F is on record as 4.7 L/h in series [1] (setting [3]); 8.6 L/h in series [1] (setting [4]); 2.6 L/h in series [1] (setting [5]); 2.8 L/h in series [1] (setting [6]); 7.1 L/h in series [1] (setting [7]). The Cmax/Dose is 0.008 (μg/mL)/mg in series [1] (setting [3]); 0.0037 (μg/mL)/mg in series [1] (setting [4]); 0.0079 (μg/mL)/mg in series [1] (setting [5]); 0.0119 (μg/mL)/mg in series [1] (setting [6]); 0.0089 (μg/mL)/mg in series [1] (setting [7]). Further, the time of peak concentration (Tmax) in series [1] (human CLL, Week 1 Day-3 single dose, Subject 1, 200 mg, 50 mg tablets) was determined as 6 h; in series [1] (setting [7]), 8 h; in series [1] (plasma, oral, human CLL, Week 1 Day-3 single dose, Mean of 3 subjects, read-out: Tmax), 7.3 h. The “time to reach Cmax” value in series [1] (human subjects) was “around 7 hours”. Moreover, in series [1] (human, 200 mg dose, predicted), the “predicted AUC” value was 30000 ng·h/mL. In addition, the “observed AUC versus predicted AUC” value in series [1] (human, normalized to 200 mg dose) is on record as “about 2 fold”. Moreover, the Cmax in series [1] (setting [8]) was 1190 ng/mL; in series [1] (human, plasma, oral, 150 mg, human CLL, Week 3 Day 1, QD dosing, ID 101, 150 mg) it was 1340 ng/mL; in series [1] (setting [9]), 730 ng/mL; in series [1] (setting [10]), 1570 ng/mL. Also, the AUC(0-inf) in series [1] (setting [8]) worked out at 36300 ng·h/mL; in series [1] (setting [9]), 23300 ng·h/mL; in series [1] (setting [10]), 76000 ng·h/mL. For the same molecule, the half-life in series [1] (human, plasma, oral, 100 mg, human CLL, Week 1 Day-3 single dose, Subject 3, 100 mg, read-out: t1/2 (converted)) was 22.1 h; in series [1] (human, plasma, oral, 200 mg, human CLL, Week 1 Day-3 single dose, Subject 1, 200 mg, read-out: t1/2 (converted)), 30.6 h; in series [1] (human, plasma, oral, 200 mg, human CLL, Week 1 Day-3 single dose, Subject 2, 200 mg, read-out: t1/2 (converted)), 50.9 h; in series [1] (human, plasma, oral, human CLL, Week 1 Day-3 single dose, Harmonic Mean of 3 subjects, read-out: t1/2 (converted)), 30.7 h; in series [1] (human, plasma, oral, human subjects, observed, read-out: terminal elimination half-life (converted)), 31 h. Also, in series [1] (human, plasma, oral, 150 mg, read-out: AUC (AUCss,24)), the area under the curve (AUC) is 21100 ng·h/mL. For the same molecule, the “clearance, predicted value” in series [1] (human, predicted) is reported as 10 L/h. In addition, the “terminal elimination half-life, predicted value” in series [1] (human, predicted) is 15 h. Further, the clearance in series [1] (plasma, oral, human subjects, observed) was 78.3 mL/min. In addition, the “adverse event after the first dose” value in series [1] (three CLL subjects, first cohort, initial dose 100-200 mg, 50 mg tablet form, all subjects) was “tumor lysis syndrome”.

Turning to `CC1(C)CCC(CN2CCN(c3ccc(C(=O)NS(=O)(=O)c4ccc(NCC5CCC(C)(O)CC5)c([N+](=O)[O-])c4)c(Oc4cnc5[nH]ccc5c4)c3)CC2)=C(c2ccc(Cl)cc2)C1` (stereo not drawn) [Compound 338, 4-(4-{[2-(4-chlorophenyl)-4,4-dimethylcyclohex-1-en-1-yl]methyl}piperazin-1-yl)-N-[(4-{[(cis-4-hydroxy-4-methylcyclohexyl)methyl]amino}-3-nitrophenyl)sulfonyl]-2-(1H-pyrrolo[2,3-b]pyridin-5-yloxy)benzamide], the “log D” value in series [2] worked out at 5.67.

For the molecule `CC1(C)CCC(CN2CCN(c3ccc(C(=O)NS(=O)(=O)c4cnc(OCC5(F)CCC(O)CC5)c(Cl)c4)c(Oc4cnc5[nH]ccc5c4)c3)CC2)=C(c2ccc(Cl)cc2)C1` (stereo not drawn) [Compound 350, N-({5-chloro-6-[(cis-1-fluoro-4-hydroxycyclohexyl)methoxy]pyridin-3-yl}sulfonyl)-4-(4-{[2-(4-chlorophenyl)-4,4-dimethylcyclohex-1-en-1-yl]methyl}piperazin-1-yl)-2-(1H-pyrrolo[2,3-b]pyridin-5-yloxy)benzamide], the negative-log Ki (pKi) on Bcl-2 protein was greater than 11.00.

Consider `CC1(C)CCC(CN2CCN(c3ccc(C(=O)NS(=O)(=O)c4ccc(OCC5CCC(C)(O)CC5)c(Cl)c4)c(Oc4cnc5[nH]ccc5c4)c3)CC2)=C(c2ccc(Cl)cc2)C1` (stereo not drawn) [Compound 362, N-({3-chloro-4-[(trans-4-hydroxy-4-methylcyclohexyl)methoxy]phenyl}sulfonyl)-4-(4-{[2-(4-chlorophenyl)-4,4-dimethylcyclohex-1-en-1-yl]methyl}piperazin-1-yl)-2-(1H-pyrrolo[2,3-b]pyridin-5-yloxy)benzamide], for which, at Bcl-2 protein, the pKi is 10.80.

On Bcl-2 protein, `COCCON1C=C(Cl)C=C(S(=O)(=O)NC(=O)c2ccc(N3CCN(CC4=C(c5ccc(Cl)cc5)CC(C)(C)CC4)CC3)cc2Oc2cnc3[nH]ccc3c2)C1` [Compound 292, N-{[5-chloro-1-(2-methoxyethoxy)pyridin-3-yl]sulfonyl}-4-(4-{[2-(4-chlorophenyl)-4,4-dimethylcyclohex-1-en-1-yl]methyl}piperazin-1-yl)-2-(1H-pyrrolo[2,3-b]pyridin-5-yloxy)benzamide] had a pKi of 9.72.

`COC1(C)CCC(c2ccc(Cl)cc2)=C(CN2CCN(c3ccc(C(=O)NS(=O)(=O)c4ccc(NCC5CCC(C)(O)CC5)c([N+](=O)[O-])c4)c(Oc4cnc5[nH]ccc5c4)c3)CC2)C1` (stereo not drawn) [Compound 377, 4-(4-{[2-(4-chlorophenyl)-5-methoxy-5-methylcyclohex-1-en-1-yl]methyl}piperazin-1-yl)-N-[(4-{[(trans-4-hydroxy-4-methylcyclohexyl)methyl]amino}-3-nitrophenyl)sulfonyl]-2-(1H-pyrrolo[2,3-b]pyridin-5-yloxy)benzamide] showed a negative logarithm of the Ki (pKi) on Bcl-2 protein greater than 12.00.

`CC1(C)CCC(CN2CCN(c3ccc(C(=O)NS(=O)(=O)c4cnc(NCC5CCC(C)(O)CC5)c([N+](=O)[O-])c4)c(Oc4cnc5[nH]ccc5c4)c3)CC2)=C(c2ccc(Cl)cc2)C1` (stereo not drawn) [Compound 371, 4-(4-{[2-(4-chlorophenyl)-4,4-dimethylcyclohex-1-en-1-yl]methyl}piperazin-1-yl)-N-[(6-{[(trans-4-hydroxy-4-methylcyclohexyl)methyl]amino}-5-nitropyridin-3-yl)sulfonyl]-2-(1H-pyrrolo[2,3-b]pyridin-5-yloxy)benzamide] gave a pKi at Bcl-2 protein greater than 12.00.

As to `CC1(O)CCC(COc2ncc(S(=O)(=O)NC(=O)c3ccc(N4CCN(CC5=C(c6ccc(Cl)cc6)CC6(CC5)CC6)CC4)cc3Oc3cnc4[nH]ccc4c3)cc2Cl)CC1` (stereo not drawn) [Compound 341, N-({5-chloro-6-[(trans-4-hydroxy-4-methylcyclohexyl)methoxy]pyridin-3-yl}sulfonyl)-4-(4-{[5-(4-chlorophenyl)spiro[2.5]oct-5-en-6-yl]methyl}piperazin-1-yl)-2-(1H-pyrrolo[2,3-b]pyridin-5-yloxy)benzamide], the pKi at Bcl-2 protein is greater than 11.00.

On to `CC1(C)CCC(CN2CCN(c3ccc(C(=O)NS(=O)(=O)c4cnc(NCC5CCC(C)(O)CC5)c([N+](=O)[O-])c4)c(Oc4cnc5[nH]ccc5c4)c3)CC2)=C(c2ccc(Cl)cc2)C1` (stereo not drawn) [Compound 376, 4-(4-{[2-(4-chlorophenyl)-4,4-dimethylcyclohex-1-en-1-yl]methyl}piperazin-1-yl)-N-[(6-{[(cis-4-hydroxy-4-methylcyclohexyl)methyl]amino}-5-nitropyridin-3-yl)sulfonyl]-2-(1H-pyrrolo[2,3-b]pyridin-5-yloxy)benzamide], for which, at Bcl-2 protein, the negative logarithm of the Ki (pKi) is greater than 12.00.

Take `CC1(C)CCC(CN2CCN(c3ccc(C(=O)NS(=O)(=O)c4ccc(NCC5CCC(C)(O)CC5)c([N+](=O)[O-])c4)c(Oc4cnc5[nH]ccc5c4)c3)CC2)=C(c2ccc(Cl)cc2)C1` (stereo not drawn) [Compound 337, 4-(4-{[2-(4-chlorophenyl)-4,4-dimethylcyclohex-1-en-1-yl]methyl}piperazin-1-yl)-N-[(4-{[(trans-4-hydroxy-4-methylcyclohexyl)methyl]amino}-3-nitrophenyl)sulfonyl]-2-(1H-pyrrolo[2,3-b]pyridin-5-yloxy)benzamide]: the “log D” value in series [2] is recorded as 5.48.
